The record followed here is patent US9206241B2, “Modified prokaryotic ubiquitin-like protein and methods of use thereof” (priority 2012, dated 2015).

The Km is the substrate concentration at which the rate is half of its maximum. In general, kcat refers to the maximal rate divided by the concentration of active sites.

In assay [1] the target is Dop (deamidase of Pup), Dop-His6 (Mycobacterium tuberculosis, UniProt P9WNU9). The conditions noted are these: for Km / kcat: Dop kinetics with synthetic substrate, n.a. = no activity.
Dop (deamidase of Pup), Dop-His6, sequence (P9WNU9 whole entry): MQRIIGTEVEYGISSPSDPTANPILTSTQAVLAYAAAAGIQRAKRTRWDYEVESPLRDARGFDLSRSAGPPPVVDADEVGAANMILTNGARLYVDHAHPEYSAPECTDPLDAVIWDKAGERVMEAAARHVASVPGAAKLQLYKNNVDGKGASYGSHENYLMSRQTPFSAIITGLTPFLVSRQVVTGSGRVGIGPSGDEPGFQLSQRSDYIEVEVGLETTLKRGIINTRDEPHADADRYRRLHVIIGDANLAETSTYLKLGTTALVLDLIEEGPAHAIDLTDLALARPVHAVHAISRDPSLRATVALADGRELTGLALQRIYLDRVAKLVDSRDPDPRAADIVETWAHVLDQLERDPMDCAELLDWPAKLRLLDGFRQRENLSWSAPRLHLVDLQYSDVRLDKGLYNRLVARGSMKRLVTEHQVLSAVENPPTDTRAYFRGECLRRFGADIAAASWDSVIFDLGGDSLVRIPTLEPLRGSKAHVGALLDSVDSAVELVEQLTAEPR
Text: SoftMax Pro (Molecular Devices) was used to measure the data and GraphPad Prism was used to fit the kinetic data.
The test system of the next assay is lysates of E. coli. As to the kind of experiment: Hydrolysis of substrate in E. coli lysates. Format: biochemical.

For “EETDDLLDEIDDVLEENAEDFVRAYVQKGG-Glu(AMC) [1b]”, in assay [1], the Km was 0.75 ± 0.08 µM and the kcat was 0.0113 ± 0.00033 s⁻¹.

For the substance “MAQEQTKRGGGGGDDDDIAGSTAAGQERREKLTEETDDLLDEIDDV LEENAEDFVRAYVQKGG-Glu(AMC) [1a]”, the “hydrolysis of substrate in lysate” value in the assay with lysates of E. coli was “could not hydrolyze”. In addition, in assay [1], the Km was 0.65 ± 0.07 µM and the kcat stood at 0.01 ± 0.00033 s⁻¹. In addition, the “hydrolytic activity of Dop on the substrate (cleavage of AMC)” value in assay [1] (increase in fluorescence over time) is “showed hydrolytic activity”.
